Experimental data taken from patent publication US20220142169A1, “INHIBITING INSECTICIDE RESISTANCE AND MAKING SUSCEPTIBLE INSECTS HYPER-SUSCEPTIBLE TO PESTICIDES” (priority 2019, published 2022).

Legend:
[1] = test system: Drosophila Canton-S strain; test: Cypermethrin mortality bioassay (glass vial, 24 h) after inhibitor feeding; format: in vivo, Drosophila melanogaster; conditions: for LD50: 24 h
Procedure: (§1) Adult flies were placed in bottles with instant drosophila blue diet (Formula 2-24®, carolina.com) made with inhibitor solutions for two days.
(§2) 200 μl of each concentration of solution as well as 200 μl acetone were transferred into 20 ml transparent glass vials and rolled on its side in a fume hood till the acetone completely evaporated. 20 flies of 91C, 91R and Canton-S stains were placed into vials for either female or male. Vials were capped with cotton plugs moistened with a 5% sucrose solution in distilled water. The number of dead flies were recorded after 24 hours. […] For each strain by sex combination, 8 concentrations of dosage were used including 0 control. A total of 8×3×20 flies were used for each of strain by sex combinations. For mortality bioassay, Probit analysis tool in SAS was used (SAS 9.4, SAS Ins, USA).

Drosophila 91-C strain = test: as above; format: in vivo, Drosophila melanogaster; conditions: for LD50: 24 h
Procedure: as §1, §2

Drosophila 91-R strain = test: as above; format: in vivo, Drosophila melanogaster; conditions: for LD50: 24 h
Procedure: as §1, §2

[2] = test system: Drosophila melanogaster DDT-susceptible 91-C strain; test: DDT mortality bioassay (glass vial, 24 h) after two days of inhibitor feeding; format: in vivo; conditions: for reduction of level of DDT resistance: optimal rearing condition; for decrease of DDT resistance: sub-optimal rearing condition; for LD50: 24 h
Source text: (§3) Flies of 1-2 day old (females and males) were introduced into a plastic vial (28 mm×95 mm height) and fed with inhibitors mixed in 5% sucrose solution. […] After fed with inhibitor solutions for two days, 20 females or males from either the 91-R or 91-C strains were used in all DDT bioassays. To explore the effect of inhibitors, fruit flies under two different rearing conditions: optimal rearing condition and sub-optimal rearing condition were used in our study. Under optimal rearing condition, 100 pairs of flies were maintained in bottles (containing 50 ml standard medium) and allowed for laying eggs for four days. All adults were then removed to make sure the suitable density of larva. Differently, adults were not removed until emerging of next generation under sub-optimal rearing condition. Simply, optimal rearing condition provided enough food for flies, but sub-optimal rearing condition faced certain food pressure.
(§4) Briefly, various concentrations of DDT dissolved in acetone were transferred into 20 ml transparent glass vials and each rolled on its side in a fume hood till the acetone evaporated. […] Vials were capped with cotton plugs moistened with a 5% sucrose solution in distilled water. The number of dead flies were recorded after 24 hours.
(§5) For RT-qPCR, statistical analysis was performed using Student's t-test to compare the results between 91-C and 91-R. For glycogen assay and body weight, One-way ANOVA was used, and means comparisons were made by using Student's t test (p<0.05) by using SPSS software (Version 19.0; SPSS Inc., USA). The median lifespan under fed or starvation conditions were calculated using the Probit function in SPSS (Version 19.0; SPSS Inc, USA). For mortality bioassay, Probit analysis was conducted by using SPSS software (Version 19.0; SPSS Inc, USA).

[3] = test system: Drosophila melanogaster DDT-resistant 91-R strain; test: as above; format: in vivo; conditions: for reduction of level of DDT resistance: optimal rearing condition; for decrease of DDT resistance: sub-optimal rearing condition; for LD50: 24 h; for Resistance Ratio / ratio of LD50 optimal / sub-optimal rearing conditions: DDT; for ratio of LD50 optimal / sub-optimal rearing conditions: no inhibitor
Source text: as §3, §4, §5

GSK3β-PO = conditions: listed beside gene GSK3β-PO; cited from earlier work
[4] = DDT LD50, 91-C♀, optimal dietary rearing, Hys 10 mM, LiCl 20 mM fed 2 days
[5] = DDT LD50, 91-C♂ (so in the source), sub-optimal dietary rearing
[6] = DDT LD50, 91-C♂, optimal dietary rearing
[7] = DDT LD50, 91-R♀, optimal dietary rearing
[8] = DDT LD50, 91-R♀, sub-optimal dietary rearing
[9] = DDT LD50, 91-R♂, optimal dietary rearing
[10] = DDT LD50, 91-R♂, sub-optimal dietary rearing

## NN.O=S(=O)(O)O [Hys, hydrazine sulphate]
[1]; Canton-S ♀
  Synergism Ratio: 3.58
[1]; Canton-S ♂
  Synergism Ratio: 3.78
Drosophila 91-C strain; 91-C♀
  Synergism Ratio: 4.39
Drosophila 91-C strain; 91-C♂
  Synergism Ratio: 5.73
Drosophila 91-R strain; 91-R♀
  Synergism Ratio: 3.87
Drosophila 91-R strain; 91-R♂
  Synergism Ratio: 3.88

## [Cl-].[Li+] [LiCl, lithium chloride]
[2]; 91-C females
  reduction of level of DDT resistance: 4.2 fold
  decrease of DDT resistance: 2.3 fold
[2]; 91-C males
  reduction of level of DDT resistance: 2.7 fold
  decrease of DDT resistance: 2.3 fold
[2]; DDT LD50, 91-C♀ (so in the source), sub-optimal dietary rearing
  LD50: 0.94 μg/vial
[2]; [4]
  LD50: 12.17 μg/vial
[2]; [5]
  LD50: 2.96 μg/vial
[2]; [6]
  LD50: 7.22 μg/vial
[2]; DDT, 91-C♀ (so in the source), sub-optimal rearing
  Resistance Ratio: 2.26
[2]; DDT, 91-C♂ (so in the source), sub-optimal rearing
  Resistance Ratio: 2.29
[2]; DDT, 91-C♂, optimal rearing
  Resistance Ratio: 2.74
[2]; control LD50 vs inhibitor-fed, DDT, 91-C♀, optimal rearing
  Resistance Ratio: 4.24
[3]; 91-R females
  reduction of level of DDT resistance: 1.6 fold
  decrease of DDT resistance: 3.3 fold
[3]; 91-R males
  reduction of level of DDT resistance: 20.5 fold
  decrease of DDT resistance: no significant decreased in resistance levels
[3]; 91-R, both sexes, optimal rearing conditions
  resistance ratio reduction / decrease of DDT resistance: 1.6-20.5 fold
[3]; [7]
  LD50: 83375.00 μg/vial
[3]; [8]
  LD50: 157.63 μg/vial
[3]; [9]
  LD50: 3224.00 μg/vial
[3]; [10]
  LD50: 126.69 μg/vial
[3]; 91-R♀, optimal rearing
  Resistance Ratio: 1.64
[3]; 91-R♀, sub-optimal rearing
  Resistance Ratio: 3.37
[3]; 91-R♂, optimal rearing
  Resistance Ratio: 20.49
[3]; 91-R♂, sub-optimal rearing
  Resistance Ratio: 1.13
[1]; Canton-S ♀
  Synergism Ratio: 0.74
[1]; Canton-S ♀, Hys 10 mM, LiCl 20 mM in diet 2 days
  LD50: 0.78 μg/vial
[1]; Canton-S ♂
  Synergism Ratio: 0.60
  LD50: 0.9 μg/vial
Drosophila 91-C strain; 91-C♀
  Synergism Ratio: 4.93
  LD50: 0.13 μg/vial
Drosophila 91-C strain; 91-C♂
  Synergism Ratio: 11.92
  LD50: 0.03 μg/vial
Drosophila 91-R strain; 91-R♀
  Synergism Ratio: 4.58
  LD50: 0.17 μg/vial
Drosophila 91-R strain; 91-R♂
  Synergism Ratio: 3.36
  LD50: 0.08 μg/vial
GSK3β-PO
  IC50: 2000 µM

## Clc1ccc(C(c2ccc(Cl)cc2)C(Cl)(Cl)Cl)cc1 [DDT]
[2]; [4]
  LD50: 51.59 μg/vial
[2]; [5]
  LD50: 6.77 μg/vial
[2]; [6]
  LD50: 19.81 μg/vial
[2]; DDT, 91-C females, no inhibitor
  ratio of LD50 optimal / sub-optimal rearing condition: 7.62
[3]; [7]
  LD50: 136883.00 μg/vial
[3]; [8]
  LD50: 523.34 μg/vial
[3]; [9]
  LD50: 66073.00 μg/vial
[3]; [10]
  LD50: 143.70 μg/vial
[3]; 91-R females
  ratio of LD50 optimal / sub-optimal rearing conditions: 261.56
[3]; 91-R males
  ratio of LD50 optimal / sub-optimal rearing conditions: 459.80

## NC1=NC(=O)/C(=C2\CCNC(=O)c3[nH]c(Br)cc32)N1 [Hymenialdesine]
GSK3β-PO
  IC50: 0.01 µM

## NC1=N[C@H]2c3c([nH]c(Br)c3Br)C(=O)N3CCC[C@]23N1 [Dibromocantharelline]
GSK3β-PO
  IC50: 3 µM
